Assay [1] deals with Bee Brain Activity for Ac-luciferin (esterase activity of bee brain extract). Format: biochemical, honey bees. Particulars: for % activity: bee brain extract; for I50 (concentration of inhibitor which gives a 50% decrease in enzymatic activity as measured by bioluminescence): bee brain, Ac-luciferin substrate, 5 min. On the procedure: (§1) 1. Sample is preincubated with a predetermined quantity (dilution 1:200) of brain preparation for 5 minutes.
(§2) 2. Luciferin acetate (200 pmoles) is added to the incubation mixture for additional 5 minutes.
(§3) 3. A portion of this […] mixture (100 μl) is withdrawn and added to the luciferase and ATP reaction mixture (1 ml).
(§4) 4. Bioluminescence reading for 2-5 seconds is monitored.
(§5) 5. The reading of the pesticide sample is compared to the control sample to quantitate the percent inhibition of the sample (see Tables 3, 4, 5 and 6) .
(§6) Insects are stored from at -20° C. or below. Insect heads are collected by dissection with a scalpel and placed in a 50 ml beaker containing approximately 15 ml ice cold 0.07M phosphate buffer, pH 7.0, containing 1 mM EDTA (ethylenediaminetetra acetic acid) and 1 μM phenylthiourea. The insect heads are gently homogenized at low speed in a Tekmar Tissumizer. Aliquots of this crude extract are transferred to microcentrifuge tubes and centrifuged. The supernatant is retained and applied to a sephadex G-25 column equilibrated with 0.07M phosphate buffer, pH 7.0, containing 1 mM EDTA and 1 μM phenylthiourea. Fractions are collected every 2 minutes and monitored for esterase activity using luciferin acetate as a substrate and measuring bioluminescence. Fractions with esterase activity are pooled and used as the insect head extract for use in the pesticide assay.
(§7) Notes: Brain extracts have been prepared primarily from honey bees, but also has been extracted from silkworm and blowflies. Protein concentration of the bee head extract is between 2 to 5 mg/ml. For the assay, 5 to 10 μl is used per assay.
(§8) 1. To 13×100 mm test tubes add 2 ml 0.07M phosphate buffer, pH 7.0. Add 25 μl positive pesticide control (organophosphate and/or carbamate pesticide), 25 μl water to negative control tube and 25 μl of test sample to another tube. If test sample contains solvent other than water, then use this solvent as the negative control tube.
(§9) 2. Add insert brain extract (5 or 10 μl depending on activity) to the 2 ml incubation mixture in step 1, vortex and incubate at 35° C. in temperature block for 10 minutes. Use timer with alarm to monitor time.
(§10) 3. At 10 minutes, add 25 μl 8.25 μM luciferin acetate solution to 2 ml incubation mixture in step 2. Reset timer to zero and restart timer.
(§11) 4. At 5 minutes, take 100 μl portion from each sample. Use separate pipette tip for each sample and add the 100 μl portion to separate 13×100 mm test tubes containing 1 ml of bioluminescence buffer.
(§12) 5. Add 30 μl ATP solution followed by 30 μl luciferase solution to one of the assay tubes in step 4. Vortex and measure bioluminescence for 2 to 5 seconds. Record value and proceed to the next tubes as above.
6. […] In the positive samples the esterolitic activity of the bee extract will be inhibited and less luciferin will form giving a low bioluminescent reading. Divide sample reading or positive control by zero control and multiply to 100 to get percent inhibition.

In assay [2] the test system is Silkworm Brain Activities. Briefly: Bioluminescence pesticide assay: inhibition of silkworm brain activities. In kind it is biochemical. Particulars: pesticide at 25 PPB. As to the method:
as §1, §2, §3, §4, §5, §6, §7, §8, §9, §10, §11, §12
6. Zero control bioluminescence reaction will be uninhibited by pesticide and will have a high bioluminescence reading. In the positive samples the esterolitic activity of the bee extract will be inhibited and less luciferin will form giving a low bioluminescent reading. Divide sample reading or positive control by zero control and multiply to 100 to get percent inhibition.

Where two headings read alike, the source gives them in different places.

This note sets out measurements from US5283180A, “Bioluminescence method for the determination of pesticides” (priority 1992, dated 1994).

Broadly, the % Inhibition is the percentage by which the read-out fell short of the control. Lower therefore signals a response near the control. `COP(=S)(OC)Oc1ccc([N+](=O)[O-])cc1` [Methyl parathion]: the “% activity” value was found to be 62% in assay [1] (0.625 ppb pesticide), 40% in assay [1] (1.25 ppb pesticide) and 23% in assay [1] (2.5 ppb pesticide). In addition, the “I50 (concentration of inhibitor which gives a 50% decrease in enzymatic activity as measured by bioluminescence)” value in assay [1] turned out to be 1 ppb. Further, in assay [2], the “% Inhibition” value was 0%.

Turning to `CNC(=O)ON=C(C)SC` [Methomyl], the “% activity” value in assay [1] (3.125 ppb pesticide) was determined as 45%; in assay [1] (6.25 ppb pesticide), 16%; in assay [1] (12.5 ppb pesticide) it was 20%; in assay [1] (25 ppb pesticide) it was 12%. Further, the “I50 (concentration of inhibitor which gives a 50% decrease in enzymatic activity as measured by bioluminescence)” value in assay [1] came to 4 ppb.

In the case of `CNC(=O)Oc1cccc2c1OC(C)(C)C2` [Carbofuran], the “% activity” value in assay [1] (6.25 ppb pesticide) is recorded as 59%; in assay [1] (12.5 ppb pesticide), 41%; in assay [1] (25 ppb pesticide) it was 32%; in assay [1] (50 ppb pesticide), 22%. Further, the “I50 (concentration of inhibitor which gives a 50% decrease in enzymatic activity as measured by bioluminescence)” value in assay [1] is given as 8 ppb.

As to `CCOP(=S)(OCC)SCSCC` [Phorate], the “% activity” value worked out at 70% in assay [1] (1.25 ppb pesticide); 29% in assay [1] (2.5 ppb pesticide); 23% in assay [1] (3.125 ppb pesticide); 8% in assay [1] (6.25 ppb pesticide); 3% in assay [1] (12.5 ppb pesticide). Moreover, the “I50 (concentration of inhibitor which gives a 50% decrease in enzymatic activity as measured by bioluminescence)” value in assay [1] is reported as 2 ppb. Also, the “% Inhibition” value in assay [2] is recorded as 50.5%.

For `CNC(=O)Oc1cccc2c1OC(C)(C)O2` [Bendocarb], the “% activity” value in assay [1] (12.5 ppb pesticide) came out at 50%; in assay [1] (25 ppb pesticide), 26%; in assay [1] (50 ppb pesticide), 18%; in assay [1] (100 ppb pesticide), 11%. In addition, in assay [1], the “I50 (concentration of inhibitor which gives a 50% decrease in enzymatic activity as measured by bioluminescence)” value was found to be 12 ppb.

Turning to `CNC(=O)Oc1ccccc1OC(C)C` [Propoxur], the “% activity” value is given as 62% in assay [1] (3.1 ppb pesticide); 43% in assay [1] (12.5 ppb pesticide); 44% in assay [1] (25 ppb pesticide); 29% in assay [1] (62.5 ppb pesticide); 27% in assay [1] (125.0 ppb pesticide). Also, the “I50 (concentration of inhibitor which gives a 50% decrease in enzymatic activity as measured by bioluminescence)” value in assay [1] is given as 10 ppb.

With `COC(=O)C=C(C)OP(=O)(OC)OC` [Mevinphos], the “% activity” value in assay [1] (0.3125 ppb pesticide) came out at 64%; in assay [1] (0.625 ppb pesticide), 52%; in assay [1] (1.25 ppb pesticide) it was 48%; in assay [1] (2.5 ppb pesticide), 24%; in assay [1] (3.125 ppb pesticide) it was 12%; in assay [1] (6.25 ppb pesticide), 9%. Further, in assay [1], the “I50 (concentration of inhibitor which gives a 50% decrease in enzymatic activity as measured by bioluminescence)” value turned out to be 2 ppb. In addition, the “% Inhibition” value in assay [2] came to 50%.

Consider `CC[S+]([O-])CCSP(=O)(OC)OC` (stereo not shown) [Oxydemeton-methyl], for which the “% activity” value in assay [1] (0.3125 ppb pesticide) came to 90%; in assay [1] (0.625 ppb pesticide), 43%; in assay [1] (1.25 ppb pesticide) it was 47%; in assay [1] (2.5 ppb pesticide), 37%; in assay [1] (25 ppb pesticide) it was 21%. Further, in assay [1], the “I50 (concentration of inhibitor which gives a 50% decrease in enzymatic activity as measured by bioluminescence)” value stood at 1 ppb. Besides, in assay [2], the “% Inhibition” value is listed as 0%.

Take `CCOP(=S)(OCC)SCSP(=S)(OCC)OCC` [Ethion]: the “% activity” value in assay [1] (0.3125 ppb pesticide) was determined as 84%; in assay [1] (0.625 ppb pesticide) it was 71%; in assay [1] (1.25 ppb pesticide) it was 65%; in assay [1] (2.5 ppb pesticide), 37%. For the same compound, the “I50 (concentration of inhibitor which gives a 50% decrease in enzymatic activity as measured by bioluminescence)” value in assay [1] amounted to 2 ppb. In assay [2], the “% Inhibition” value is given as 77.0%.

Turning to `CCOP(=S)(OCC)Oc1cc(C)nc(C(C)C)n1` [Diazinon], the “% activity” value came out at 40% in assay [1] (25 ppb pesticide) and 28% in assay [1] (100 ppb pesticide). Further, in assay [1], the “I50 (concentration of inhibitor which gives a 50% decrease in enzymatic activity as measured by bioluminescence)” value stood at 15 ppb. The “% Inhibition” value in assay [2] was 0%.

On to `COP(=O)(OC)OC=C(Cl)Cl` [DDVP], for which the “% activity” value in assay [1] (0.0013 ppb pesticide) amounted to 74%; in assay [1] (0.0023 ppb pesticide), 49%; in assay [1] (0.0028 ppb pesticide), 60%; in assay [1] (0.0057 ppb pesticide), 52%; in assay [1] (0.011 ppb pesticide), 25%. In addition, the “I50 (concentration of inhibitor which gives a 50% decrease in enzymatic activity as measured by bioluminescence)” value in assay [1] was 0.004 ppb. In addition, in assay [2], the “% Inhibition” value turned out to be 100.0%.

On to `CCOP(=S)(OCC)SCCSCC` [Disulfoton], for which the “% activity” value in assay [1] (3.125 ppb pesticide) is listed as 66%; in assay [1] (6.25 ppb pesticide), 47%; in assay [1] (12.5 ppb pesticide), 35%; in assay [1] (25 ppb pesticide), 19%. Moreover, the “I50 (concentration of inhibitor which gives a 50% decrease in enzymatic activity as measured by bioluminescence)” value in assay [1] is on record as 5 ppb. In assay [2], the “% Inhibition” value is reported as 25%.

Take `COP(=O)(OC)OC(Br)C(Cl)(Cl)Br` (stereo not shown) [Naled]: the “% activity” value in assay [1] (0.031 ppb pesticide) is on record as 50%; in assay [1] (0.125 ppb pesticide) it was 30%; in assay [1] (0.250 ppb pesticide), 25%; in assay [1] (0.625 ppb pesticide), 29%. For the same compound, in assay [1], the “I50 (concentration of inhibitor which gives a 50% decrease in enzymatic activity as measured by bioluminescence)” value was 0.05 ppb. In addition, in assay [2], the “% Inhibition” value was 98.0%.

As to `CCOC(=O)CC(SP(=S)(OC)OC)C(=O)OCC` (stereo not shown) [Malathion], the “% activity” value in assay [1] (6.25 ppb pesticide) stood at 53%; in assay [1] (12.5 ppb pesticide), 50%; in assay [1] (25 ppb pesticide) it was 27%; in assay [1] (50 ppb pesticide) it was 27%. For the same compound, the “I50 (concentration of inhibitor which gives a 50% decrease in enzymatic activity as measured by bioluminescence)” value in assay [1] was 6 ppb.

`CCOP(=S)(OCC)Oc1nc(Cl)c(Cl)cc1Cl` [Chlorpyrifos]: the “% activity” value in assay [1] (0.625 ppb pesticide) is reported as 68%; in assay [1] (1.25 ppb pesticide), 34%; in assay [1] (2.5 ppb pesticide), 24%; in assay [1] (3.125 ppb pesticide) it was 13%; in assay [1] (6.25 ppb pesticide), 10%. In addition, the “I50 (concentration of inhibitor which gives a 50% decrease in enzymatic activity as measured by bioluminescence)” value in assay [1] is recorded as 1 ppb.
